Patent publication EP4644383A1 (Jiangsu Yahong Meditech Co., Ltd., priority 2022, dated 2024)
Where two headings read alike, the source gives them in different places.

Tests used:
FGFR3 = target: T1, FGFR3 (Homo sapiens, UniProt P22607); test: FGFR3 kinase activity inhibition assay (LanthaScreen TR-FRET); assay type: biochemical; conditions: for Selectivity (X) FGFR1/FGFR3: ratio of IC50 FGFR1/FGFR3, selectivity towards FGFR3
T1 construct: FGFR3's cytoplasmic domain [436-806 (terminal) amino acids]; purchased Carna 08-135
T1 sequence (P22607 436-806): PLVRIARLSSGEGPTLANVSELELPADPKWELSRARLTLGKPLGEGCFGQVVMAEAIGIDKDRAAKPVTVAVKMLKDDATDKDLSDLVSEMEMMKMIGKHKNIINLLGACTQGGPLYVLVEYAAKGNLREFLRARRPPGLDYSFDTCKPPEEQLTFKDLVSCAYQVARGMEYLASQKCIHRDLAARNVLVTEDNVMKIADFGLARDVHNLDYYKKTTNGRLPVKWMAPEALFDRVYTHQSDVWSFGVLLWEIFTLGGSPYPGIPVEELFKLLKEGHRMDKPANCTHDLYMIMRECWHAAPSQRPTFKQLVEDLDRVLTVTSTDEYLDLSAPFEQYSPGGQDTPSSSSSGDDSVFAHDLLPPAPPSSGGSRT
Procedure: PV3552) and 10 mM EDTA were added to quench the kinase reaction, and incubated at 22°C for 60 minutes. • ⑤ The reaction was measured using a PerkinElmer EnVision multimode plate reader through TR-FRET dual wavelength detection. • 1. The RFU values were copied from the Envision program. • 2. The ratio of RFU 520nm/RFU 495nm was calculated. • 3. The value of the ratio was converted to a percentage inhibition value. % Inhibition = (max-data)/(max-min) × 100 [formula] "Min" represents the ratio of the control without enzyme, "max" represents the ratio of the DMSO control, and "data" represents the ratio of the compounds in wells with different concentrations. […] "Top" refers to the maximum response, "Bottom" refers to the minimum response, and "HillSlope" refers to the slope of the curve. According to the same method as that in the FGFR1 kinase activity inhibition assay, the inhibitory activities against FGFR2, FGFR3 and FGFR4 were tested using FGFR2's cytoplasmic domain [399-821 (terminal) amino acids] (Carna: 08-134), FGFR3's cytoplasmic domain [436-806 (terminal) amino acids] (Carna: 08-135) and FGFR4's cytoplasmic domain [460-802 (terminal) amino acids] (Carna: 08-136), respectively. […]

FGFR1 = target: T2, FGFR1 (Homo sapiens, UniProt P11362); test: FGFR1 kinase activity inhibition assay (LanthaScreen TR-FRET); assay type: biochemical
T2 construct: cytoplasmic domain [398-822 (terminal) amino acids]; purchased Carna 08-133
T2 sequence (P11362 398-822): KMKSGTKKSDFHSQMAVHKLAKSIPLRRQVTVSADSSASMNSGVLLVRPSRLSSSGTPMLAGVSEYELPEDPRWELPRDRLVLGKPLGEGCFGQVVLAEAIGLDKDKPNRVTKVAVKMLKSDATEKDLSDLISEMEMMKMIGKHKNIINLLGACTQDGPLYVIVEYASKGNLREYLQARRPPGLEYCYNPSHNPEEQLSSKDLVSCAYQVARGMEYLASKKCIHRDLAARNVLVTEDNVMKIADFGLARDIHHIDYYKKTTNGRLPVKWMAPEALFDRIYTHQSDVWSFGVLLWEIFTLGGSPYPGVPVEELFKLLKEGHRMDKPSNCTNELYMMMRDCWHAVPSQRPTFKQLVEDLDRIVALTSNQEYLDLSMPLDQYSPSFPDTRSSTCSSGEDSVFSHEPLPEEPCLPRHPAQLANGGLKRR
Procedure: PV3552) and 10 mM EDTA were added to quench the kinase reaction, and incubated at 22°C for 60 minutes. • ⑤ The reaction was measured using a PerkinElmer EnVision multimode plate reader through TR-FRET dual wavelength detection. • 1. The RFU values were copied from the Envision program. • 2. The ratio of RFU 520nm/RFU 495nm was calculated. • 3. The value of the ratio was converted to a percentage inhibition value. % Inhibition = (max-data)/(max-min) × 100 [formula] "Min" represents the ratio of the control without enzyme, "max" represents the ratio of the DMSO control, and "data" represents the ratio of the compounds in wells with different concentrations. […] "Top" refers to the maximum response, "Bottom" refers to the minimum response, and "HillSlope" refers to the slope of the curve.

[1] = FGFR3 kinase, TR-FRET, read-out: IC50 (nM) FGFR3
[2] = FGFR1 kinase, TR-FRET, read-out: IC50 (nM) FGFR1

IC50 (FGFR3; [1]) | Compound | also measured
< 1 nM | 7-methyl-5-(1-((3-(1-methyl-1H-pyrazol-4-yl)-1H-pyrazino[4,3-b]pyridin-5-yl)oxy)ethyl)pyridi no[3,4-b]pyrazine [Example 204] | Selectivity (X) FGFR1/FGFR3 (FGFR3): A (A represents 1 ≤ multiple X<20); IC50 (FGFR1; [2]): 1 to 10 nM
– | CCCn1cc(-c2n[nH]c3c(F)cc(O[C@H](C)c4c(Cl)cncc4Cl)cc23)cn1 [Example 10] | IC50 (FGFR3): 1 to 10 nM; Selectivity (X) FGFR1/FGFR3 (FGFR3): A (A represents 1 ≤ multiple X<20); IC50 (FGFR1): 10 to 100 nM
1 to 10 nM | CC(=O)N1CCC(n2cc(-c3n[nH]c4c(F)cc(O[C@H](C)c5c(Cl)cncc5Cl)cc34)cn2)CC1 [Example 13] | Selectivity (X) FGFR1/FGFR3 (FGFR3): A (A represents 1 ≤ multiple X<20); IC50 (FGFR1; [2]): 10 to 100 nM
1 to 10 nM | C[C@@H](Oc1cc(F)c2[nH]nc(-c3cnn(CC(N)=O)c3)c2c1)c1c(Cl)cncc1Cl [Example 16, (R)-2-(4-(5-(1-(3,5-dichloropyridin-4-yl)ethoxy)-7-fluoro-1H-indazol-3-yl)-1H-pyrazol-1-yl)acetamide] | Selectivity (X) FGFR1/FGFR3 (FGFR3): A (A represents 1 ≤ multiple X<20); IC50 (FGFR1; [2]): 10 to 100 nM
– | C[C@@H](Oc1cc(F)c2[nH]nc(-c3cnn(CCC4CCOCC4)c3)c2c1)c1c(Cl)cncc1Cl [Example 18, (R)-5-(1-(3,5-dichloropyridin-4-yl)ethoxy)-7-fluoro-3-(1-(2-(tetrahydro-2H-pyran-4-yl)ethyl)-1H-pyrazol-4-yl)-1H-indazole] | IC50 (FGFR3): 1 to 10 nM; Selectivity (X) FGFR1/FGFR3 (FGFR3): A (A represents 1 ≤ multiple X<20); IC50 (FGFR1): 1 to 10 nM
> 100 nM | CC(Oc1ccc2[nH]nc(-c3cnn(C)c3)c2c1)c1cccc2c1OCCO2 (centres unmarked) [Example 97, 5-(1-(2,3-dihydrobenzo[b][1,4]dioxan-5-yl)ethoxy)-3-(1-methyl-1H-pyrazol-4-yl)-1H-indazole] | –
1 to 10 nM | CC(Oc1ccc2[nH]nc(-c3cnn(C)c3)c2c1)c1c(F)ccc2ncccc12 (centres unmarked) [Example 102, 6-fluoro-5-(1-((3-(1-methyl-1H-pyrazol-4-yl)-1H-indazol-5-yl)oxy)ethyl)qu inoline] | –
1 to 10 nM | CC(Oc1ccc2[nH]nc(-c3cnn(C)c3)c2c1)c1cccc2ncn(C)c12 (centres unmarked) [Example 103, 5-(1-(1-methyl-1H-benzo[d]imidazol-7-yl)ethoxy)-3-(1-methyl-1-H-pyrazol-4-yl)-1H-indazole] | –
1 to 10 nM | CC(Oc1ccc2[nH]nc(-c3cnn(C)c3)c2c1)c1cccc2cnccc12 (centres unmarked) [Example 104, 5-(1-((3-(1-methyl-1H-pyrazol-4-yl)-1H-indazol-5-yl)oxy)ethyl)isoq uinoline] | –
10 to 100 nM | CC(Oc1ccc2[nH]nc(-c3cnn(C)c3)c2c1)c1cccc2cccnc12 (centres unmarked) [Example 105, 8-(1-((3-(1-methyl-1H-pyrazol-4-yl)-1H-indazol-5-yl)oxy)ethyl)quin oline] | –
10 to 100 nM | CC(Oc1ccc2[nH]nc(-c3cnn(C)c3)c2c1)c1cccc2occc12 (centres unmarked) [Example 106, 5-(1-(benzofuran-4-yl)ethoxy)-3-(1-methyl-1H-pyrazol-4-yl)-1H-indazole] | –
> 100 nM | CC(Oc1ccc2[nH]nc(-c3cnn(C)c3)c2c1)c1cncc2ncccc12 (centres unmarked) [Example 108, 5-(1-((3-(1-methyl-1H-pyrazol-4-yl)-1H-indazol-5-yl)oxy)ethyl)-1,7-naphthyridine] | –
10 to 100 nM | CC(Oc1ccc2[nH]nc(-c3cnn(C)c3)c2c1)c1cccc2scnc12 (centres unmarked) [Example 109] | –
> 100 nM | Cc1ccc2ncccc2c1C(CO)Oc1ccc2[nH]nc(-c3cnn(C)c3)c2c1 (centres unmarked) [Example 114, 2-((3-(1-methyl-1H-pyrazol-4-yl)-1H-indazol-5-yl)oxy)-2-(6-methylquinolin-5-yl)ethan-1-ol] | –
> 100 nM | Cc1ccc2ncccc2c1C(C)Sc1ccc2[nH]nc(-c3cnn(C)c3)c2c1 (centres unmarked) [Example 115, 6-methyl-5-(1-((3-(1-methyl-1H-pyrazol-4-yl)-1H-indazol-5-yl)thio)ethyl)quinoline] | –
– | Cc1ccc2ncccc2c1C(C)Oc1cnc2[nH]nc(-c3cnn(C)c3)c2c1 (centres unmarked) [Example 117, 6-methyl-5-(1-((3-(1-methyl-1H-pyrazol-4-yl)-1H-pyrazino[3,4-b]pyridin-5-yl)oxy)ethyl)quinoline] | IC50 (FGFR3): 10 to 100 nM
> 100 nM | Cc1ccc2ncccc2c1C(Oc1ccc2[nH]nc(-c3cnn(C)c3)c2c1)C(F)(F)F (centres unmarked) [Example 121, 6-methyl-5-(2,2,2-trifluoro-1-((3-(1-methyl-1H-pyrazol-4-yl)-1H-indazol-5-yl)oxy)ethyl)quinoline] | –

IC50 (FGFR3; [1]) | Compound | also measured
> 100 nM | Cc1ccc(C(C)Oc2ccc3[nH]nc(-c4cnn(C)c4)c3c2)c2cccnc12 (centres unmarked) [Example 123, 8-methyl-5-(1-((3-(1-methyl-1H-pyrazol-4-yl)-1H-indazol-5-yl)oxy)ethyl)qu inoline] | –
10 to 100 nM | CC(Oc1ccc2[nH]nc(-c3cnn(C)c3)c2c1)c1csc2ncccc12 (centres unmarked) [Example 125, 3-(1-((3-(1-methyl-1H-pyrazol-4-yl)-1H-indazol-5-yl)oxy)ethyl)thi eno[2,3-b]pyridine] | –
1 to 10 nM | Cc1ccc2ncccc2c1C(C)Oc1cc2c(-c3cnn(C)c3)n[nH]c2cn1 (centres unmarked) [Example 131] | –
10 to 100 nM | CC(Oc1ccc2[nH]nc(-c3cnn(C)c3)c2c1)c1cc(C(F)(F)F)cc2nccnc12 (centres unmarked) [Example 137, 5-(1-((3-(1-methyl-1H-pyrazol-4-yl)-1H-indazol-5-yl)oxy)ethyl)-7-(trifluoromethyl)quinoxaline] | –
1 to 10 nM | C#Cc1cc(C(C)Oc2ccc3[nH]nc(-c4cnn(C)c4)c3c2)c2nccnc2c1 (centres unmarked) [Example 146, 7-ethynyl-5-(1-((3-(1-methyl-1H-pyrazol-4-yl)-1H-indazol-5-yl)oxy)ethyl)quinoxa line] | –
10 to 100 nM | CC(Oc1ccc2[nH]nc(-c3cnn(C)c3)c2c1)c1cc(N(C)C)cc2ncccc12 (centres unmarked) [Example 151] | –
1 to 10 nM | CC(Oc1ccc2[nH]nc(-c3ccc(S(C)(=N)=O)nc3)c2c1)c1cccc2nccnc12 (centres unmarked) [Example 152, imino(methyl)(5-(5-(1-(quinoxalin-5-yl)ethoxy)-1H-indazol-3-yl)pyridin-2-yl)-sulfanone] | –
< 1 nM | CC(Oc1ccc2[nH]nc(-c3ccc(N4CCS(=N)(=O)CC4)nc3)c2c1)c1cccc2nccnc12 (centres unmarked) [Example 153] | –
1 to 10 nM | CC(Oc1ccc2[nH]nc(-c3cnn(C4CCS(=N)(=O)CC4)c3)c2c1)c1cccc2nccnc12 (centres unmarked) [Example 154, 1-imino-4-(4-(5-(1-(quinoxalin-5-yl)ethoxy)-1H-indazol-3-yl)-1H-pyrazol-1-yl)hexahydro-thiopyran 1-oxide] | –
1 to 10 nM | CC(Oc1ccc2[nH]nc(-c3cnn(C)c3)c2c1)c1cc(C2CC2)cc2ncccc12 (centres unmarked) [Example 164, 7-cyclopropyl-5-(1-((3-(1-methyl-1H-pyrazol-4-yl)-1H-indazol-5-yl)oxy)ethyl)qui noline] | –
10 to 100 nM | Cc1ccc2ncccc2c1C(C)Oc1ccc2[nH]nc(-c3cn(C)nn3)c2c1 (centres unmarked) [Example 165, 6-methyl-5-(1-((3-(1-methyl-1H-1,2,3-triazol-4-yl)-1H-indazol-5-yl)oxy)ethyl)qui noline] | –
– | C#Cc1ccc2ncccc2c1C(C)Oc1ccc2[nH]nc(-c3cnn(C)c3)c2c1 (centres unmarked) [Example 166, 6-ethynyl-5-(1-((3-(1-methyl-lH-pyrazol-4-yl)-1H-indazol-5-yl)oxy)ethyl)quinoline] | IC50 (FGFR3): 10 to 100 nM
10 to 100 nM | CC(Oc1ccc2[nH]nc(-c3cnn(C)c3)c2c1)c1c(Cl)ccc2ncccc12 (centres unmarked) [Example 167, 6-chloro-5-(1-((3-(1-methyl-1H-pyrazol-4-yl)-1H-indazol-5-yl)oxy)ethyl)qu inoline] | –
10 to 100 nM | CC(Oc1ccc2[nH]nc(-c3cnn(C)c3)c2c1)c1c(C(F)(F)F)ccc2ncccc12 (centres unmarked) [Example 172, 5-(1-((3-(1-methyl-1H-pyrazol-4-yl)-1H-indazol-5-yl)oxy)ethyl)-6-(trifluoromethyl)quinoline] | –
1 to 10 nM | COc1cc(OC(C)c2nc(C)cc3nccnc23)cc2c(-c3cnn(C)c3)n[nH]c12 (centres unmarked) [Example 231, 5-(1-((7-methoxy-3-(1-methyl-1H-pyrazol-4-yl)-1H-indazol-5-yl)oxy)ethyl)-7-methylpyrido[3,4-b]pyrazine] | –
10 to 100 nM | CC(Oc1ccc2[nH]nc(-c3cnn(C)c3)c2c1)c1nc(C#N)cc2nccnc12 (centres unmarked) [Example 235, 5-(1-((3-(1-methyl-1H-pyrazol-4-yl)-1H-indazol-5-yl)oxy)ethyl)pyridino[3,4-b]pyr azine-7-carbonitrile] | –

Compound | IC50 (FGFR3; [1]) | also measured
C[C@@H](Oc1cc(C#N)c2[nH]nc(-c3cnn(C)c3)c2c1)c1c(Cl)cncc1Cl [Example 8] | > 100 nM | Selectivity (X) FGFR1/FGFR3 (FGFR3): A (A represents 1 ≤ multiple X<20); IC50 (FGFR1; [2]): > 100 nM
Cc1ccc2ncccc2c1C(=O)Oc1ccc2[nH]nc(-c3cnn(C)c3)c2c1 [Example 118] | 10 to 100 nM | –
